Assay results from US12180476B2, “Use of PIWI-interacting RNA piR-hsa-211106” (Qingdao University, priority 2022, dated 2024).
“Also recorded” adds a separate entry of the source.

Legend:
[1] = system: lung adenocarcinoma cells A549; assay: CCK8 proliferation activity assay; type: cell-based; settings: 0, 1, 2, 3, and 4 days after transfection, FIG. 1
Description: (§1) This example related to a process of transfecting an agonist to lung adenocarcinoma cells: after the lung adenocarcinoma cells were passaged to a cell density of about 30-50%, the agonist was transfected to the lung adenocarcinoma cells by lipo3000. 5 μl (100 pmol) of the agonist was added to an EP tube containing 95 μl of a DMEM medium by pipetting and mixing, 5 μl of lipo3000 was added to the EP tube containing 95 μl of the DMEM medium by pipetting and mixing, the two materials were mixed at a volume ratio of 1:1 to form a transfection mixture, the mixture was allowed to stand at a room temperature for 20 min and added into a culture plate, and an analysis at gene and protein levels was conducted after 48 h.

[2] = system: lung adenocarcinoma cells HCC2279; assay: CCK8 proliferation activity assay; type: cell-based; settings: 0, 1, 2, 3, and 4 days after transfection, FIG. 1
Description: as §1

[3] = system: lung adenocarcinoma cells A549; assay: Edu staining proliferation assay; type: cell-based; settings: after transfection for two days, FIGS. 2 and 3
Description: as §1, with “h. […]” for “h.”

[4] = system: lung adenocarcinoma cells HCC2279; assay: Edu staining proliferation assay; type: cell-based; settings: after transfection for two days, FIGS. 2 and 3
Description: as §1, with “h. […]” for “h.”

[5] = system: lung adenocarcinoma cells A549; assay: Transwell chamber migration assay; type: cell-based; settings: after transfection for two days, 24 h migration, FIGS. 4 and 5
Description: as §1

[6] = system: lung adenocarcinoma cells HCC2279; assay: Transwell chamber migration assay; type: cell-based; settings: after transfection for two days, 24 h migration, FIGS. 4 and 5
Description: as §1

[7] = system: lung adenocarcinoma cells A549; assay: Scratch experiment migration assay; type: cell-based; settings: after transfection for two days, 0 h and 24 h after scratching, FIGS. 6 and 7
Description: as §1

[8] = system: lung adenocarcinoma cells HCC2279; assay: Scratch experiment migration assay; type: cell-based; settings: after transfection for two days, 0 h and 24 h after scratching, FIGS. 6 and 7
Description: as §1

[9] = system: lung adenocarcinoma cells A549; assay: Apoptosis by flow cytometry (Annexin V-FITC/PI); type: cell-based; settings: after transfection for two days, FIGS. 8 and 9
Description: (§2) This example related to a process of transfecting an agonist to lung adenocarcinoma cells: after the lung adenocarcinoma cells were passaged to a cell density of about 30-50%, the agonist was transfected to the lung adenocarcinoma cells by lipo3000. […]
(§3) This example related to a detection process of apoptosis of lung adenocarcinoma cells A549 and HCC2279 by a flow cytometry: the lung adenocarcinoma cells were cultured, the cells in the experimental group were transfected with a PIWI-interacting RNA piR-hsa-211106, after transfection for two days, apoptosis was detected by Annexin V-FITC/PI (Shanghai YEASEN Biotechnology Co., Ltd): • (1) after the lung adenocarcinoma cells were digested with a trypsin without EDTA, centrifugation was conducted at 300 g and 4° C. for 5 min and the cells were collected; • (2) the cells were washed twice with a pre-cooled PBS, centrifugation was conducted at 300 g and 4° C. for 5 min each time and 1-5×10^5 cells were collected; • (3) the PBS was pipetted and discarded, and 1× binding buffer was added to resuspend the cells; • (4) annexin V-FITC and a PI staining solution were added, gentle mixing was conducted, and reaction was conducted in dark at room temperature for 10-15 min; and • (5) 1× binding buffer was added, even mixing was conducted, an obtained mixture was placed on ice, and detection was conducted with the flow cytometry within 1 h.

[10] = system: lung adenocarcinoma cells HCC2279; assay: Apoptosis by flow cytometry (Annexin V-FITC/PI); type: cell-based; settings: after transfection for two days, FIGS. 8 and 9
Description: as §2, §3

[11] = biological target: T1, pyruvate carboxylase (Homo sapiens, UniProt P11498); assay: Biotin-coupled probe RNA pull-down assay with western blot; type: binding; settings: biotinylated piR-hsa-211106 probe, lung adenocarcinoma cell lysate; FIG. 10
T1 construct: 1×10^7 lung adenocarcinoma cells were harvested, lysed and subjected to an ultrasonic treatment; endogenous in cells
T1 sequence (P11498 21-1178): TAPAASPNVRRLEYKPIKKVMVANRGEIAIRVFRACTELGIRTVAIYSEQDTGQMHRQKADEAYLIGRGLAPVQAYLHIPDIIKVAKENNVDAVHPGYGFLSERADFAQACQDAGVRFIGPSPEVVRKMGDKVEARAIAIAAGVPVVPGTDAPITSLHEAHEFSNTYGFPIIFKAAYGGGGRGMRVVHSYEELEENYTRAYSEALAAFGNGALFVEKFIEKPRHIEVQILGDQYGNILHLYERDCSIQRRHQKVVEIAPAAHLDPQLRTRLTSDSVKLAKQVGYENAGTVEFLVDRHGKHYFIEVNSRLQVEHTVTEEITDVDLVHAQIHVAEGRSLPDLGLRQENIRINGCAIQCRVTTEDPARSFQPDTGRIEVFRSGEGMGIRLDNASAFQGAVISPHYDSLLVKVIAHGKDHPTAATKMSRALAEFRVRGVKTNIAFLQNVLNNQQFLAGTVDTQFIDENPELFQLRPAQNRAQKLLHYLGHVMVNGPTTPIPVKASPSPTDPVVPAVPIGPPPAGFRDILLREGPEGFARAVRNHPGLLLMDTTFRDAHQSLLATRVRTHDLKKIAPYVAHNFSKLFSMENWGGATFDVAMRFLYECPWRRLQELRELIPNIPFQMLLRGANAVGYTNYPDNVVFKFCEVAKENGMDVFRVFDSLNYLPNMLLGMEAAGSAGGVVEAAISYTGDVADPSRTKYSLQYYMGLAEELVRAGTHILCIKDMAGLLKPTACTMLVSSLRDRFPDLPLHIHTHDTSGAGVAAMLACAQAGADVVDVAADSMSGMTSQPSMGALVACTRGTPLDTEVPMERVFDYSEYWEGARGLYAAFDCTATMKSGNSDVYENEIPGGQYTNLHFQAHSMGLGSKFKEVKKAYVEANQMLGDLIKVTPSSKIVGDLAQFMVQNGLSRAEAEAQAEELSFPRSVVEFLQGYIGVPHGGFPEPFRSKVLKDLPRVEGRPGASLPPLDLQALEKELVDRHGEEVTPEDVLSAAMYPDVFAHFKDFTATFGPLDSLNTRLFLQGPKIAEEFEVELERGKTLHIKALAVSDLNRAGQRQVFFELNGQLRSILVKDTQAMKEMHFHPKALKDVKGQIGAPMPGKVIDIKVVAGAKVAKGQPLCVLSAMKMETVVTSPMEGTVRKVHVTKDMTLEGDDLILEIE

[12] = system: pyruvate carboxylase; assay: qRT-PCR analysis of gene expression level in lung adenocarcinoma cells; type: cell-based; settings: FIG. 11
Description: as §1, with “h. […]” for “h.”

[13] = system: pyruvate carboxylase; assay: Western blot analysis of protein expression level in lung adenocarcinoma cells; type: cell-based; settings: GAPDH internal reference, FIG. 12
Description: as §1, with “h. […]” for “h.”
the protein samples were separated by an SDS-PAGE electrophoresis, the separated proteins were transferred to a PVDF membrane, the membrane was blocked with 5% powdered skim milk for 1 h, the membrane was washed, an incubation with a primary antibody (PC, GAPDH) was conducted overnight in a 4° C. refrigerator, the membrane was washed, an incubation with a secondary antibody was conducted at room temperature for 1 h, the membrane was washed, a target band was obtained by ECL chemiluminescence method, the band was subjected to a grayscale scanning by using a Quantity One software and a GAPDH internal reference was used for correction.

[14] = system: A549 cells; assay: Tumor-bearing model of a nude mouse, intratumoral treatment; type: in vivo, BALB/c nude mice
Description: This example related to a process of constructing a tumor-bearing model of a nude mouse: 3- to 4-week-old BALB/c nude mice (SiPeiFu Laboratory Animal Technology Co., Ltd) were taken and used for an experiment after adapting to local conditions for 1 week, 2×10^7 of A549 cells were injected subcutaneously into left and right armpits of the mice, and when an implanted tumor reached 50 mm^3, a drug treatment was conducted.
This example related to a drug-targeted treatment process of a tumor-bearing model of a nude mouse: • The nude mice were divided into two groups: a cisplatin experimental group and a normal saline control group, with 5 nude mice in each group; • The nude mice in the experimental group were injected intraperitoneally with cisplatin (5 mg/kg body weight/week), 50 μM of a PIWI-interacting RNA piR-hsa-211106 agonist was injected directly into a tumor on a right side and piR-NC (Shanghai GenePharma Co., Ltd) was injected into a tumor on a left side as a control group of the cisplatin treatment group; • An equal volume of normal saline was injected intraperitoneally into the nude mice in the control group, the PIWI-interacting RNA piR-hsa-211106 agonist was used to treat the tumor as above, the PIWI-interacting RNA piR-hsa-211106 agonist was used for treatment every other day for 28 days, and the tumor volume was measured once a week; the mice were sacrificed at an end of the experiment, and xenografts were peeled off and photographed.

[15] = injected into tumors in nude mice, versus control groups

Q: For “piR-hsa-211106: PIWI-interacting RNA, SEQ ID NO:1 TCCGGCTCGAAGGACTTCGTCTGTAATTTT; used as double-strand agonist with cholesterol, thio skeleton and methoxy modifications (cholesterol, phosphorothioate and 2'-OMe modifications, pattern not given here, duplex)”, which “cell proliferation activity (OD value at 450 nm, CCK8)” value [1] is on record?
A: significantly inhibit the proliferation

Q: And the “cell proliferation activity (OD value at 450 nm, CCK8)” value [2]?
A: significantly inhibit the proliferation

Q: And the “proportion of proliferating cells (Edu staining)” value [3]?
A: significantly inhibit the growth

Q: What about the “proportion of proliferating cells (Edu staining)” value [4] of the same substance?
A: significantly inhibit the growth

Q: And the “migration ability (Transwell chamber, migrated cells counted)” value [5]?
A: significantly inhibit the migration ability

Q: And the “migration ability (Transwell chamber, migrated cells counted)” value [6]?
A: significantly inhibit the migration ability

Q: What about the “migration ability (scratch experiment, relative migration rate)” value [7] of the same substance?
A: significantly inhibit the migration ability

Q: What about the “migration ability (scratch experiment, relative migration rate)” value [8] of the same substance?
A: significantly inhibit the migration ability

Q: And the “apoptosis (flow cytometry)” value [9]?
A: significantly cause the apoptosis

Q: And the “apoptosis (flow cytometry)” value [10]?
A: significantly cause the apoptosis

Q: What about the “binding to pyruvate carboxylase (RNA pull-down)” value [11] of the same substance?
A: binds to the PC; also recorded: can bind to a pyruvate carboxylase

Q: And the “expression of pyruvate carboxylase (gene expression level, qRT-PCR)” value [12]?
A: significantly inhibit an expression

Q: What about the “expression of pyruvate carboxylase at a protein level (WB)” value [13] of the same substance?
A: can regulate an expression of a pyruvate carboxylase at a protein level

Q: And the “therapeutic effect compared with positive control cisplatin” value ([14]; 50 μM agonist injected directly into tumor every other day for 28 days, cisplatin 5 mg/kg body weight/week intraperitoneally, FIGS. 13, 14 and 15)?
A: comparable to that of the positive control group treated with cisplatin; also recorded: comparable therapeutic effect as the positive control drug cisplatin

Q: And the “growth of lung adenocarcinoma in vivo” value ([14]; A549 tumor in nude mice, agonist intratumoral every other day for 28 days)?
A: capable of inhibiting growth of lung adenocarcinoma in vivo

Q: And the “effect in combination with cisplatin” value ([14]; agonist intratumoral plus cisplatin 5 mg/kg body weight/week intraperitoneally, 28 days)?
A: increases chemical sensitivity of the chemotherapeutic drug cisplatin and has a synergistic effect

Q: What about the tumor volume [14, 15] of the same substance?
A: smaller than those of the control groups

Q: And the tumor weight [14, 15]?
A: smaller than those of the control groups
